Assay results taken from patent US5625046A, “Hydroxyl projecting groups for organic synthesis” (King's College London, priority 1986, dated 1997).

What was measured:
[1] = removal of 2'-protecting groups by acidic hydrolysis at 25° C. (HPLC); format: physicochemical; conditions: for t0.99 (calculated time for 99% removal of the 2'-protecting group) / t1/2 (half-time): 25° C.; for t1/2 (half-time): hydrochloric acid or 0.2M glycine hydrochloride buffer; for rate of hydrolysis, times faster at pH 1.0 than at pH 3.0: pH 1.0 vs pH 3.0
Procedure: The removal of 2'-protecting groups by acidic hydrolysis at 25° C. was then investigated. Substrates as indicated below (ca 0.5-1.0 mg) were dissolved in 3.0 ml of hydrochloric acid or 0.2M glycine hydrochloride buffer at the specified pH. Aliquots (0.2 ml) of the reaction solutions were removed after suitable intervals of time, neutralized with triethylammonium bicarbonate and analyzed by HPLC (Jones "APEX ODS" column).
(b) t0.99 =calculated time for 99% removal of the 2'-protecting group.

[2] = concomitant removal of 2'-O-Ctmp group during removal of 5'-O-(9-phenylxanthen-9-yl) group (trifluoroacetic acid/pyrrole in dichloromethane); format: physicochemical; conditions: in the time required for complete removal of the 5'-O-(9-phenylxanthen-9-yl) group, 5.5 mol. equiv. trifluoroacetic acid, 16.5 mol. equiv. pyrrole, room temperature
Procedure: Following the above scheme, the latter compound was then converted by the conventional two-step procedure into the fully-protected dinucleoside phosphate in ca 83% overall yield. When a 0.025M solution of the fully-protected dinucleoside phosphate in dichloromethane was treated with 5.5 mol. equiv. of trifluoroacetic acid and 16.5 mol. equiv. of pyrrole for 30 seconds at room temperature, no starting material remained and the partially-protected dinucleoside phosphate was isolated from the products In 95.5% yield. When the acid treatment of the fully-protected dinucleoside phosphate was extended to 30 minutes under the same conditions, the partially-protected dinucleoside phosphate was isolated in 85% yield. From such results, it may be estimated that less than 0.2% concomitant removal of the 2'-O-Ctmp group occurs in the time required for the complete removal of the 5'-O-(9-phenylxanthen-9-yl) protecting group.

Row | Compound | t0.99 (calculated time for 99% removal of the 2'-protecting group) ([1]; pH 2.0) | t1/2 (half-time) ([1]; pH 2.0) | t0.99 (calculated time for 99% removal of the 2'-protecting group) ([1]; pH 2.5) | t1/2 (half-time) ([1]; pH 2.5) | t0.99 (calculated time for 99% removal of the 2'-protecting group) ([1]; pH 1.0) | t1/2 (half-time) ([1]; pH 1.0) | rate of hydrolysis, times faster at pH 1.0 than at pH 3.0 [1] | t0.99 (calculated time for 99% removal of the 2'-protecting group) ([1]; pH 3.0) | t1/2 (half-time) ([1]; pH 3.0) | rate of hydrolysis, dependence on pH (in words) ([1]; with decreasing pH) | rate of hydrolysis, dependence on pH ([1]; between pH 0.5 and 1.5) | t0.99 (calculated time for 99% removal of the 2'-protecting group) ([1]; pH 0.5) | t1/2 (half-time) ([1]; pH 0.5) | t0.99 (calculated time for 99% removal of the 2'-protecting group) ([1]; pH 1.5) | t1/2 (half-time) ([1]; pH 1.5) | t0.99 (calculated time for 99% removal of the 2'-protecting group) ([1]; pH 3.5) | t1/2 (half-time) ([1]; pH 3.5) | stability of protecting group for the desired purposes (in words) [1] | effect of vicinal phosphotriester group on acid-catalyzed hydrolysis of Ctmp (in words) [1] | concomitant removal of the 2'-O-Ctmp group [2]
1 | COC1(O[C@@H]2[C@H](OP(=O)(OC[C@H]3O[C@@H](n4ccc(=O)[nH]c4=O)[C@H](OC(C)=O)[C@@H]3OC(C)=O)Oc3ccccc3Cl)[C@@H](COC3(c4ccccc4)c4ccccc4Oc4ccccc43)O[C@H]2n2ccc(=O)[nH]c2=O)CCN(c2ccc(C)cc2Cl)CC1 (some centres unmarked) [fully-protected dinucleoside phosphate] |  |  |  |  |  |  |  |  |  |  |  |  |  |  |  |  |  |  |  | less than 0.2%
2 | COC1(O[C@@H]2[C@H](O)[C@@H](CO)O[C@H]2n2ccc(=O)[nH]c2=O)CCOCC1 [reference compound] | 136 min | 20.5 min |  |  | 6 min | 0.9 min | 140 times | 837 min | 126 min | increases sharply with decreasing pH |  |  |  |  |  |  |  |  |  | 
3 | COC1(O[C@@H]2[C@H](O)[C@@H](CO)O[C@H]2n2ccc(=O)[nH]c2=O)CCN(c2ccccc2)CC1 [reference compound] | 4380 min | 660 min |  |  | 3300 min | 498 min |  |  |  |  |  |  |  |  |  |  |  | too stable |  | 

More lines, main results first:

Row | t0.99 (calculated time for 99% removal of the 2'-protecting group) ([1]; pH 2.0) | t1/2 (half-time) ([1]; pH 2.0) | t0.99 (calculated time for 99% removal of the 2'-protecting group) ([1]; pH 2.5) | t1/2 (half-time) ([1]; pH 2.5) | t0.99 (calculated time for 99% removal of the 2'-protecting group) ([1]; pH 1.0) | t1/2 (half-time) ([1]; pH 1.0) | rate of hydrolysis, times faster at pH 1.0 than at pH 3.0 [1] | t0.99 (calculated time for 99% removal of the 2'-protecting group) ([1]; pH 3.0) | t1/2 (half-time) ([1]; pH 3.0) | rate of hydrolysis, dependence on pH (in words) ([1]; with decreasing pH) | rate of hydrolysis, dependence on pH ([1]; between pH 0.5 and 1.5) | t0.99 (calculated time for 99% removal of the 2'-protecting group) ([1]; pH 0.5) | t1/2 (half-time) ([1]; pH 0.5) | t0.99 (calculated time for 99% removal of the 2'-protecting group) ([1]; pH 1.5) | t1/2 (half-time) ([1]; pH 1.5) | t0.99 (calculated time for 99% removal of the 2'-protecting group) ([1]; pH 3.5) | t1/2 (half-time) ([1]; pH 3.5) | stability of protecting group for the desired purposes (in words) [1] | Compound | effect of vicinal phosphotriester group on acid-catalyzed hydrolysis of Ctmp (in words) [1] | concomitant removal of the 2'-O-Ctmp group [2]
4 | 143 min | 21.5 min | 156 min | 23.5 min |  |  |  |  |  |  |  |  |  |  |  |  |  |  | COC1(O[C@@H]2[C@H](OP(=O)(O)OC[C@H]3O[C@@H](n4ccc(=O)[nH]c4=O)[C@H](O)[C@@H]3O)[C@@H](CO)O[C@H]2n2ccc(=O)[nH]c2=O)CCN(c2ccc(C)cc2Cl)CC1 | facilitates the acid-catalyzed hydrolysis | 
5 | 272 min | 41 min | 345 min | 52 min | 236 min | 35.5 min | ~2.25 times | 532 min | 80 min |  | virtually unchanged | 223 min | 33.5 min | 233 min | 35 min | 1120 min | 168 min |  | COC1(O[C@@H]2[C@H](O)[C@@H](CO)O[C@H]2n2ccc(=O)[nH]c2=O)CCN(c2ccc(C)cc2Cl)CC1 |  | 
